Test results as given in ChEMBL document CHEMBL1128350, “Design and evaluation of nonpeptide fibrinogen gamma-chain based GPIIb/IIIa antagonists” (J Med Chem, 1995).
pIC50: −log10 of the molar value. Peptide text beside a SMILES is read from it.

Legend:
[1] = species: Homo sapiens; experiment: Inhibition (at 10 uM) of thrombin-induced platelet aggregation; assay type: functional
[2] = species: Homo sapiens; experiment: Inhibition (at 50 uM) of thrombin-induced platelet aggregation; assay type: functional
[3] = target: T1, Integrin alpha-IIb/beta-3 (Homo sapiens, UniProt P05106+P08514); experiment: Inhibition of biotinylated fibrinogen binding to isolated alpha IIb beta-3 integrin; assay type: protein-complex assay
Target sequence in this assay (P05106 27-788 limits assumed): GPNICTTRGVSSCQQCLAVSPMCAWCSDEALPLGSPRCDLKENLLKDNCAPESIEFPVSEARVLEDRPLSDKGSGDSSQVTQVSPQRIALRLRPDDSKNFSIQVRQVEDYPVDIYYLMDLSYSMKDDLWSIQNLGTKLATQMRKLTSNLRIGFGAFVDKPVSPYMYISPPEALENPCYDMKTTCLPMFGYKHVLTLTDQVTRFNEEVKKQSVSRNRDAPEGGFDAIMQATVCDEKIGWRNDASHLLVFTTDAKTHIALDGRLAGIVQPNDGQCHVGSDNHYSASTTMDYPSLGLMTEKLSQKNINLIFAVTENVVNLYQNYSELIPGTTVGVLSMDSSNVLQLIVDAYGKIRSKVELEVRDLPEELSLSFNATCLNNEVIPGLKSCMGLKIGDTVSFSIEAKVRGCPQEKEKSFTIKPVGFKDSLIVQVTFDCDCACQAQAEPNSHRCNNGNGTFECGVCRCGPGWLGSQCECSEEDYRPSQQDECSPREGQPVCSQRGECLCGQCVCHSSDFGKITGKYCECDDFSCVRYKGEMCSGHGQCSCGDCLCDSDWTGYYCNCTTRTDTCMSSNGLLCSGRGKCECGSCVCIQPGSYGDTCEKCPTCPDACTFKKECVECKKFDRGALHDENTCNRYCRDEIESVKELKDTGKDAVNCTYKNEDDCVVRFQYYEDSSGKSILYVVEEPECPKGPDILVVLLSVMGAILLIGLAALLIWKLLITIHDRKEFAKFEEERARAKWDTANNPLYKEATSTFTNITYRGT
Target sequence in this assay (P08514 32-887 limits assumed): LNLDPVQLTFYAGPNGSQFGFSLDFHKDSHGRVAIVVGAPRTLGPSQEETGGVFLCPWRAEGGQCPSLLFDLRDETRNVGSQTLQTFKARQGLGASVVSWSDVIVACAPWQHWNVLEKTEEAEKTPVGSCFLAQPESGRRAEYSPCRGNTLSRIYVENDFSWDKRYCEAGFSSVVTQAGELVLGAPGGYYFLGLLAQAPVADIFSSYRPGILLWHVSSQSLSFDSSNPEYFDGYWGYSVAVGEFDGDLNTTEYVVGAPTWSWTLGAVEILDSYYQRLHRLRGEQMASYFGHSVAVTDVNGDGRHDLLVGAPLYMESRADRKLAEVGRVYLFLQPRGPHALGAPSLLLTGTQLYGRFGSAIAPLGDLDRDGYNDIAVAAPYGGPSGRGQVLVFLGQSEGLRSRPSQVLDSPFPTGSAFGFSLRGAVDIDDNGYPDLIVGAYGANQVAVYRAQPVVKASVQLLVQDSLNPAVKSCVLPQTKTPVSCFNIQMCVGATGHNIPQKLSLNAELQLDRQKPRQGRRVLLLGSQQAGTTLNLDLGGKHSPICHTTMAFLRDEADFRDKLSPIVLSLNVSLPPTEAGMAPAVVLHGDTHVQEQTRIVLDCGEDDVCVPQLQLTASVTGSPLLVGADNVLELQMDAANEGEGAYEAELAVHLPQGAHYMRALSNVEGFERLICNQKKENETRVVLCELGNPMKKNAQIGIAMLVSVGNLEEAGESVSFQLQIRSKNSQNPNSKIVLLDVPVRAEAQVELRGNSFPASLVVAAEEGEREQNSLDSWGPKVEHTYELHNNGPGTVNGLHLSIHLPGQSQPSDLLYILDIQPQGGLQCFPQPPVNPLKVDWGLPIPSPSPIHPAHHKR
Target sequence in this assay (P08514 891-1039 limits assumed): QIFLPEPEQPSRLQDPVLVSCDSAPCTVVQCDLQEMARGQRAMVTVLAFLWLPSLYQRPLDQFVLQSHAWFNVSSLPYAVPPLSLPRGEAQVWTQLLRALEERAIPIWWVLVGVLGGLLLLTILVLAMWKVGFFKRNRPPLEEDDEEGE

[4] = species: Homo sapiens; experiment: Compound was tested for inhibition of thrombin-induced platelet aggregation at the 1.0 uM Conc.; assay type: functional
[5] = species: Homo sapiens; experiment: Inhibition of collagen-induced platelet aggregation […].; assay type: functional
[6] = species: Homo sapiens; experiment: Percent inhibition of thrombin-induced platelet aggregation at 20 uM.; assay type: functional
[7] = Percent inhibition of thrombin-induced platelet aggregation at the Conc. of 0.1 uM.
[8] = species: Homo sapiens; experiment: Percent inhibition of thrombin-induced platelet aggregation at 50 uM.; assay type: functional
[9] = target: T1, Integrin alpha-IIb/beta-3; experiment: (§1) Inhibition of fibrinogen binding to isolated integrin alphaIIb-beta3 at 50 uM.; assay type: protein-complex assay
[10] = Percent inhibition of thrombin-induced platelet aggregation at the Conc. of 0.1 uM.; remark: listed apart in the source
[11] = target: T1, Integrin alpha-IIb/beta-3; experiment: as §1; assay type: protein-complex assay; remark: listed apart in the source
Target sequence in this assay (P05106 27-788 limits assumed): as the sequence (P05106 27-788 limits assumed) above
Target sequence in this assay (P08514 32-887 limits assumed): as the sequence (P08514 32-887 limits assumed) above
Target sequence in this assay (P08514 891-1039 limits assumed): as the sequence (P08514 891-1039 limits assumed) above

Compound	pIC50 [3]	inhibition at 10 µM [1] [%]	inhibition at 50 µM [2] [%]	other results
CC(C)(C)OC(=O)N[C@@H](CCCCN)C(=O)N1CCCC(C(=O)NCCCC(=O)O)C1 (some centres undefined)		7	43	
NCCCC[C@H](N)C(=O)N1CCCC(C(=O)NCCC(=O)O)C1 (some centres undefined)	6.12	48	87	inhibition at 1 µM [4]: 0%
NCCCCCC(=O)N1CCCC(CNCCC(=O)O)C1 (centres undefined)		24	63	
CC(C)(C)OC(=O)N[C@@H](CCCCN)C(=O)N1CCC[C@H](C(=O)NCCC(=O)O)C1	7.55	87	91	inhibition at 1 µM [4]: 11%
CC(C)(C)OC(=O)N[C@@H](CCCCN)C(=O)N1CCCC(C(=O)NCC(=O)O)C1 (some centres undefined)	4.30	7	24	
CC(C)(C)OC(=O)NC(CCCCN)C(=O)NC12CC3CC(CC(NCC(=O)O)(C3)C1)C2 (centres undefined)				inhibition at 20 µM [6]: 40%
N=C(N)NCCC[C@H](N)C(=O)NCC(=O)N[C@@H](CC(=O)O)C(=O)N[C@@H](CS)C(=O)O (H-RGDC-OH)	6.00			
O=C(O)CCNC(=O)C1CCCN(C(=O)CCC2CCNCC2)C1 (centres undefined)	8.05	89	91	pIC50 [5]: 6.85; inhibition at 0.1 µM [7]: 4%; inhibition at 1 µM [4]: 89%
CC(C)(C)OC(=O)N[C@H](CCCCN)C(=O)N1CCCC(C(=O)NCCCC(=O)O)C1 (some centres undefined)		0	0	inhibition at 50 µM [3]: 59%
C[C@H](NC(=O)OCC1c2ccccc2-c2ccccc21)C(=O)N[C@@H](CCCCN)C(=O)NC12CC3CC(CC(NCC(=O)O)(C3)C1)C2				inhibition at 50 µM [8]: 37%; inhibition [9]: 42%
NCCCCC(NC(=O)OCc1ccccc1)C(=O)NC12CC3CC(CC(NCC(=O)O)(C3)C1)C2 (centres undefined)				inhibition at 50 µM [8]: 24%; inhibition [9]: 26%
COC(=O)CC(NC(=O)CNC12CC3CC(C1)CC(NC(=O)C(CCCCN)NC(=O)OCC1c4ccccc4-c4ccccc41)(C3)C2)C(=O)NC(C(=O)OC)C(C)C (centres undefined)				inhibition at 50 µM [8]: 15%; inhibition [9]: 0%
CC(C)(C)OC(=O)N[C@@H](CCCCN)C(=O)N1CCC[C@@H](C(=O)NCCC(=O)O)C1	8.10	87	91	pIC50 [5]: 6.66; inhibition at 0.1 µM [10]: 2%; inhibition at 1 µM [4]: 45%
CC(=O)N[C@H](CCCCN)C(=O)N1CCCC(C(=O)NCC(=O)O)C1 (some centres undefined)			4	inhibition at 50 µM [3]: 24%
O=C(O)CNC12CC3CC(C1)CC(NC(=O)CCC1CCNCC1)(C3)C2				inhibition at 50 µM [8]: 5%; inhibition [9]: 49%
CC(C)NCCCC[C@@H](NC(=O)OC(C)(C)C)C(=O)N1CCCC(C(=O)NCCC(=O)O)C1 (some centres undefined)		6	4	inhibition at 5 µM [3]: 20%
NCCCCC(NC(=O)OCc1ccccc1)C(=O)NC12CC3CC(C1)CC(N(CC(=O)O)C(=O)COc1ccccc1)(C3)C2 (centres undefined)				inhibition at 50 µM [8]: 2%; inhibition [9]: 33%
CC(C)(C)OC(=O)NC(CCCN=C(N)N)C(=O)NC12CC3CC(CC(NCC(=O)O)(C3)C1)C2 (centres undefined)				inhibition at 50 µM [8]: 9%; inhibition [9]: 28%
COC(=O)CNC12CC3CC(C1)CC(NC(=O)C(CCCCN)NC(=O)OCC1c4ccccc4-c4ccccc41)(C3)C2 (centres undefined)				inhibition at 50 µM [8]: 25%; inhibition [9]: 1%
CC(=O)N[C@@H](CCCCN)C(=O)N1CCCC(C(=O)NCCC(=O)O)C1 (some centres undefined)	6.47	67	87	
CC(C)(C)OC(=O)N[C@H](CCCN=C(N)N)C(=O)N1CCCC(C(=O)NCCC(=O)O)C1 (some centres undefined)	5.57	0	17	
CC(C)(C)OC(=O)N[C@H](CCCCN)C(=O)N1CCCC(C(=O)NCCC(=O)O)C1 (some centres undefined)	6.13	12	45	
NCCCCCC(=O)N1CCCC(C(=O)NCCC(=O)O)C1 (centres undefined)		87	88	inhibition at 1 µM [4]: 29%
CC(C)NCCCCC(NC(=O)OC(C)(C)C)C(=O)NC12CC3CC(CC(NCC(=O)O)(C3)C1)C2 (centres undefined)				inhibition at 50 µM [8]: 3%; pIC50 [11]: 4.52

The next lines start with results.

pIC50 [3]	Compound	inhibition at 10 µM [1] [%]	inhibition at 50 µM [2] [%]	other results
7.54	CC(C)(C)OC(=O)N[C@@H](CCCCN)C(=O)N1CCCC(C(=O)NCCC(=O)O)C1 (some centres undefined)	87	88	pIC50 [5]: 6.46; inhibition at 1 µM [4]: 21%
7.13	CC(=O)N[C@H](CCCCN)C(=O)N1CCCC(C(=O)NCCC(=O)O)C1 (some centres undefined)	30	88	inhibition at 1 µM [4]: 4%
7.54	COC(=O)[C@H](CC(=O)O)NC(=O)C1CCCN(C(=O)[C@H](CCCCN)NC(=O)OC(C)(C)C)C1 (some centres undefined)	32	87	pIC50 [5]: 5.58; inhibition at 1 µM [4]: 2%
5.39	H-HHLGGAKQAGDV-OH			
4.70	CC(C)(C)OC(=O)N[C@@H](CCCCNC(=O)OCc1ccccc1)C(=O)N1CCC[C@@H](C(=O)NCCC(=O)O)C1			
5.59	NCCCC[C@@H](N)C(=O)N1CCCC(C(=O)NCCC(=O)O)C1 (some centres undefined)	1	8	
